Measurements published in patent US20260176260A1, “DUAL RAF AND TUBULIN INHIBITORS AND METHODS OF USE THEREOF” (Deciphera Pharmaceuticals, LLC, priority 2023, published 2026).
Like-named read-outs stand apart in the source and are kept apart here.

Columns and labels:
B-Raf kinase = biological target: T1, B-Raf kinase (Homo sapiens, UniProt P15056); test: Biochemical assay for B-Raf (coupled pyruvate kinase/lactate dehydrogenase)
T1 construct: purchased Sigma

C-Raf kinase = biological target: T2, C-Raf kinase (Homo sapiens, UniProt P04049, Y340D/Y341D); test: Biochemical assay for C-Raf (coupled pyruvate kinase/lactate dehydrogenase)
T2 construct: C-Raf residues 306-end; Y340D, Y341D with N-; purchased Sigma

MiaPaca-2 cells = test: MiaPaca-2 cell proliferation assay (resazurin); assay type: cell-based; details: Homo sapiens, MIA PaCa-2; Table 2, inhibition of cell proliferation; read-out: MiaPaca-2
Protocol: MiaPaca-2 cells (catalog #CRL-1420) are obtained from the American Type Culture Collect (ATTC, Manassas, VA). Briefly, cells were grown in DMVEM supplemented with […] fetal bovine serum (Invitrogen, Carlsbad, CA), 2.5% New Zealand sourced horse serum and 1% Penicillin/Streptomycin/L-Glutamine at 37° C., […], and […]. Cells are expanded until reaching […] at which point they are sub-cultured or harvested for assay use. For assays completed in 96-well plates, a serial dilution of test compound is dispensed into a 96-well black clear bottom plate in triplicate. Three thousand cells are added per well in 200 μL complete growth medium in the 96-well plate. Plates are incubated for 67 to 72 h at 37° C., 5% CO2, and 95% humidity. At the end of the incubation, 40 μL of a […] solution of resazurin (Sigma, St. Louis, MO) in PBS is added to each well of the plate and plates are incubated for an additional 5 to 6 h at 37° C., 5% CO2, and 95% humidity. For 384-well assays, a threefold, 8-point serial dilution of compound was spotted column wise into a 384 well black, clear bottom, tissue culture treated plate using the Beckman Coulter Echo 650. Likewise, a threefold, 8-point serial dilution of cobimetinib was spotted row wise into the 384 well black, clear bottom plate containing compound. DMSO concentration was constant across all wells at 0.4%. Seven hundred fifty cells are added per well in 50 μL complete growth medium in each 384-well plate. Plates are incubated for 67 to 72 h at 37° C., 5% CO2, and 95% humidity. At the end of the incubation, 10 μL of a 440 μM solution of resazurin (Sigma, St. Louis, MO) in PBS is added to each well of the plate and plates are incubated for an additional 4 to 6 h at 37° C., 5% CO2, and 95% humidity. Plates are read on a Synergy2 or equivalent reader (Biotek, Winooski VT) using an excitation of 540 nm and an emission of 600 nm. Data is analyzed using Prism software (Graphpad, San Diego, CA) to calculate IC50 values.

HCT-116 cells = test: HCT-116 cell proliferation assay (resazurin); assay type: cell-based; details: Homo sapiens
Protocol: HCT-116 cells (catalog #CCL-247) are obtained from the American Type Culture Collect (ATCC, Manassas, VA). Briefly, cells are grown in McCoy's 5A supplemented with 10% characterized fetal bovine serum (Invitrogen, Carlsbad, CA) and 1% Penicillin/Streptomycin/L-Glutamine at 37° C., 5% CO2, and 95% humidity. Cells are expanded until reaching 70-95% confluency at which point they are sub-cultured or harvested for assay use. A serial dilution of test compound is dispensed into a 384-well black clear bottom plate in triplicate. 375 cells are added per well in 50 μL complete growth medium in the 384-well plate. Plates are incubated for 67 to 72 h at 37° C., 5% CO2, and 95% humidity. At the end of the incubation, 40 μL of a […] solution of resazurin (Sigma, St. Louis, MO) in PBS is added to each well of the plate and plates are incubated for an additional 4 to 5 h at 37° C., 5% CO2, and 95% humidity. Plates are read on a Synergy2 or equivalent reader (Biotek, Winooski, VT) using an excitation of 540 nm and an emission of 600 nm. Data is analyzed using Prism software (Graphpad, San Diego, CA) to calculate IC50 values.

HPAF-II cells = test: HPAF-II cell proliferation assay (resazurin); assay type: cell-based; details: Homo sapiens
Protocol: (§1) HPAF-II cells (catalog #CRL-1997) are obtained from the American Type Culture Collect (ATCC, Manassas, VA). Briefly, cells are grown in Minimum Essential Media supplemented with 10% characterized fetal bovine serum (Invitrogen, Carlsbad, CA) and 1% Penicillin/Streptomycin/L-Glutamine at 37° C., 5% CO2, and 95% humidity. Cells are expanded until reaching 70-95% confluency at which point they are sub-cultured or harvested for assay use. A serial dilution of test compound is dispensed into a 384-well black clear bottom plate in triplicate. 750 cells are added per well in 50 μL complete growth medium in the 384-well plate. Plates are incubated for 115 to 120 h at 37° C., 5% CO2, and 95% humidity. At the end of the incubation, 40 μL of a […] solution of resazurin (Sigma, St. Louis, MO) in PBS is added to each well of the plate and plates are incubated for an additional 18 to 24 h at 37° C., 5% CO2, and 95% humidity. Plates are read on a Synergy2 or equivalent reader (Biotek, Winooski, VT) using an excitation of 540 nm and an emission of 600 nm. Data is analyzed using Prism software (Graphpad, San Diego, CA) to calculate IC50 values.

Pa16c cells = test: Pa16c cell proliferation assay (resazurin); assay type: cell-based; details: Table 2, inhibition of cell proliferation
Protocol: as §1, with “Pa16c” for “HPAF-II”, “cells” for “cells (catalog #CRL-1997)”, “Dr. Channing Der, University of North Carolina at Chapel Hill.” for “the American Type Culture Collect (ATCC, Manassas, VA).”, “Dulbecco's Modified Eagle Medium” for “Minimum Essential Media”, “67” for “115”, “72” for “120”

[1] = Table 1, inhibition of biochemical activity, read-out: BRAF
[2] = Table 1, inhibition of biochemical activity, read-out: CRAF
[3] = Table 2, inhibition of cell proliferation, read-out: HCT-116
[4] = Table 2, inhibition of cell proliferation, read-out: HPAF-II

T1 sequence (P15056 416-766): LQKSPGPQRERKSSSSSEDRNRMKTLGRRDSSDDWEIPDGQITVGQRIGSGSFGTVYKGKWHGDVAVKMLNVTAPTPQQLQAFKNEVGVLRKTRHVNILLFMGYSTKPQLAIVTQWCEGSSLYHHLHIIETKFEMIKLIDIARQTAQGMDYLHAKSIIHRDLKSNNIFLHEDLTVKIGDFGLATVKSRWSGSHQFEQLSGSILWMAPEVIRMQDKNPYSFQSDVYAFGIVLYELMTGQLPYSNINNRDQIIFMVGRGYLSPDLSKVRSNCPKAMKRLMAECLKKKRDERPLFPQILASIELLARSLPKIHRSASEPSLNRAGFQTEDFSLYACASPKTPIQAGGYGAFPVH
T2 sequence (P04049 307-648 Y340D/Y341D): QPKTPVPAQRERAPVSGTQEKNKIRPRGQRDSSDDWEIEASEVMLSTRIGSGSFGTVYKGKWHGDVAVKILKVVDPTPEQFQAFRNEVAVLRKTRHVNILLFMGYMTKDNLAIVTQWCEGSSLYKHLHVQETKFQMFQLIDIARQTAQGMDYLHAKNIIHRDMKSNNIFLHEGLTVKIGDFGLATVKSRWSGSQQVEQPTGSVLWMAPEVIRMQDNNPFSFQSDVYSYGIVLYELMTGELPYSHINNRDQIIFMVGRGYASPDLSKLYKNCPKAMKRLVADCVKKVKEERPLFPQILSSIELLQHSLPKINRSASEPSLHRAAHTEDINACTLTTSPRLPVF

| Structure (SMILES) | IC50 (B-Raf kinase; [1]) | IC50 (C-Raf kinase; [2]) | IC50 (MiaPaca-2 cells) | IC50 (HCT-116 cells; [3]) | IC50 (HPAF-II cells; [4]) | IC50 (Pa16c cells) | IC50 (B-Raf kinase; Table 4, read-out: BRAF IC50) | IC50 (C-Raf kinase; Table 4, read-out: CRAF IC50) | IC50 (HCT-116 cells; HCT-116, Table 4, read-out: HCT-116 IC50) | IC50 (HPAF-II cells; HPAF-II, Table 4, read-out: HPAF-II IC50) |
| --- | --- | --- | --- | --- | --- | --- | --- | --- | --- | --- |
| Cc1ccc(NC(=O)c2cc(C(F)(F)F)cnn2)cc1-c1ccnc(-c2ccnc(C(N)=O)c2)c1 [Example 3, 4-(2-methyl-5-(5-(trifluoromethyl)pyridazine-3-carboxamido)phenyl)-[2,4′-bipyridine]-2′-carboxamide] | < 100 nM | < 100 nM | < 100 nM | < 100 nM | 100 to 500 nM | < 100 nM | – | – | – | – |
| Cc1ccc(NC(=O)c2ccc(C(F)(F)F)nc2)cc1-c1ccnc(-c2ccnc(C(=O)NC3CC3)c2)c1 [Example 5] | 1000 to 10000 nM | 100 to 500 nM | 500 to 1000 nM | 100 to 500 nM | – | – | – | – | – | – |
| Cc1cc(-c2cc(NC(=O)c3cc(C(F)(F)F)cnn3)ccc2C)cc(-c2ccnc(C(N)=O)c2)n1 [Example 7] | 100 to 500 nM | < 100 nM | 100 to 500 nM | 100 to 500 nM | 100 to 500 nM | 100 to 500 nM | – | – | – | – |
| CNC(=O)c1cc(-c2cc(-c3cc(NC(=O)c4cc(C5CC5)cnn4)ccc3C)nc(NCCO)n2)ccn1 [Example 8] | < 100 nM | < 100 nM | 500 to 1000 nM | 100 to 500 nM | 1000 to 10000 nM | 1000 to 10000 nM | – | – | – | – |
| CNC(=O)c1cc(-c2cncc(-c3cc(NC(=O)c4ccc(C(F)(F)F)nc4)ccc3C)c2)ncn1 [Example 10] | 100 to 500 nM | 100 to 500 nM | 1000 to 10000 nM | – | – | – | – | – | – | – |
| Cc1ccc(NC(=O)c2ccc(C(F)(F)F)nc2)cc1-c1cncc(-c2ccnc(C(N)=O)c2)c1 [Example 11] | 500 to 1000 nM | 100 to 500 nM | 1000 to 10000 nM | – | – | – | – | – | – | – |
| CNC(=O)c1cc(-c2cc(-c3cc(NC(=O)c4cncc(C(F)(F)F)c4)ccc3C)ccn2)ccn1 [Example 12] | < 100 nM | < 100 nM | 1000 to 10000 nM | 1000 to 10000 nM | 1000 to 10000 nM | 1000 to 10000 nM | – | – | – | – |
| CNC(=O)c1cc(-c2cc(-c3cc(NC(=O)c4cncc(C(F)(F)F)c4)ccc3C)cc(C)n2)ccn1 [Example 13] | 100 to 500 nM | < 100 nM | 1000 to 10000 nM | 1000 to 10000 nM | 1000 to 10000 nM | 1000 to 10000 nM | – | – | – | – |
| CNC(=O)c1cc(-c2cc(-c3cc(NC(=O)c4cncc(C(C)(F)F)c4)ccc3C)ccn2)ccn1 [Example 14] | < 100 nM | < 100 nM | 1000 to 10000 nM | 500 to 1000 nM | 1000 to 10000 nM | – | – | – | – | – |
| CNC(=O)c1cc(-c2cc(-c3cc(NC(=O)c4cncc(C(C)(F)F)c4)ccc3C)cc(C)n2)ccn1 [Example 15] | 100 to 500 nM | < 100 nM | 1000 to 10000 nM | – | – | – | – | – | – | – |
| CNC(=O)c1cc(-c2cncc(-c3cc(NC(=O)c4cc(C(F)(F)F)cnn4)ccc3C)c2)ccn1 [Example 16] | < 100 nM | < 100 nM | 500 to 1000 nM | 500 to 1000 nM | 1000 to 10000 nM | 1000 to 10000 nM | – | – | – | – |
| CNC(=O)c1cc(-c2cncc(-c3cc(NC(=O)c4cc(C(F)(F)F)cnn4)ccc3C)c2)ncn1 [Example 17] | 100 to 500 nM | 100 to 500 nM | 1000 to 10000 nM | 1000 to 10000 nM | 1000 to 10000 nM | 1000 to 10000 nM | – | – | – | – |
| CNC(=O)c1cc(-c2cc(-c3cc(NC(=O)c4cc(C(F)(F)F)cnn4)ccc3C)nc(NCCO)n2)ccn1 [Example 19] | < 100 nM | < 100 nM | 100 to 500 nM | 100 to 500 nM | 100 to 500 nM | 500 to 1000 nM | – | – | – | – |
| CNC(=O)c1cc(-c2cc(-c3cc(NC(=N)c4cc(C(F)(F)F)cnn4)ccc3C)ccn2)ccn1 [Example 20] | 500 to 1000 nM | 100 to 500 nM | 1000 to 10000 nM | 1000 to 10000 nM | 1000 to 10000 nM | 1000 to 10000 nM | – | – | – | – |
| CNC(=O)c1cc(-c2cc(-c3cc(NC(=N)c4cc(C5CC5)cnn4)ccc3C)ccn2)ccn1 [Example 21] | 500 to 1000 nM | 100 to 500 nM | 1000 to 10000 nM | 1000 to 10000 nM | 1000 to 10000 nM | 1000 to 10000 nM | – | – | – | – |
| CNC(=O)c1cc(-c2nc(NCCO)cc(-c3cc(NC(=O)c4cc(C5CC5)cnn4)ccc3C)n2)ccn1 [Example 22] | < 100 nM | < 100 nM | 1000 to 10000 nM | 1000 to 10000 nM | 1000 to 10000 nM | 1000 to 10000 nM | – | – | – | – |
| CNC(=O)c1cc(-c2cc(-c3cc(NC(=O)c4cc(C#N)cnn4)ccc3C)cc(N[C@H](C)CO)n2)ccn1 [Example 50] | < 100 nM | < 100 nM | 100 to 500 nM | 100 to 500 nM | 500 to 1000 nM | – | – | – | – | – |
| CNC(=O)c1cc(-c2cc(N)cc(-c3cc(NC(=O)c4cc(C(F)(F)F)cnn4)ccc3C)c2)ccn1 [Example 51] | 100 to 500 nM | < 100 nM | 500 to 1000 nM | 500 to 1000 nM | 1000 to 10000 nM | – | – | – | – | – |
| CNC(=O)c1cc(-c2cc(-c3cc(NC(=O)c4cc(C(N)=O)cnn4)ccc3C)cc(OCCO)n2)ccn1 [Example 52, N^3-(3-(6-(2-hydroxyethoxy)-2′-(methylcarbamoyl)-[2,4′-bipyridin]-4-yl)-4-methylphenyl)pyridazine-3,5-dicarboxamide] | 100 to 500 nM | < 100 nM | 1000 to 10000 nM | 1000 to 10000 nM | 1000 to 10000 nM | – | – | – | – | – |
| CNC(=O)c1cc(-c2cc(-c3cc(NC(=O)c4cc(C#N)cnn4)ccc3C)cc(NCCO)n2)ccn1 [Example 53] | < 100 nM | < 100 nM | 100 to 500 nM | 100 to 500 nM | 100 to 500 nM | – | – | – | – | – |
| CNC(=O)c1cc(-c2cc(-c3cc(NC(=O)c4cccc(C(C)(C)C#N)c4)ccc3C)cc(OCCO)n2)ccn1 [reference compound] | – | – | – | – | – | – | < 100 nM | < 100 nM | 100 to 500 nM | 500 to 1000 nM |
